Results reported in patent publication US11071727B2, “Therapeutic targeting of proteolytic cleavage of the mixed lineage leukemia gene product (MLL1) by taspase1 using kinase inhibitors” (Northwestern University, priority 2018, dated 2021).

Tests used:
Type in all cases: cell-based, human
MLL1 = assay: Western blot of full-length MLL1 protein levels in cells treated with CKII inhibitors; details: 30 hours
Experimental: (§1) FIG. 5. CKII inhibitors selectively increase full-length MLL1 protein levels by decreasing the phosphorylation of MLL1 near the cleavage sites. (A) Conservation of the sequences flanking MLL1-CS2, MLL2 and TFIIA cleavage sites and phosphorylated serine and threonine residues after the cleavage sites (highlighted in red). (B) and (C) 293T cells were transfected with vector control (VT), WT, AA or DD reporter constructs of MLL1-p75 or TFIIA. Western blot was performed with anti-Flag antibody for MLL1 (p75: FL, p47: cleaved) or TFIIA (p54: FL, p47: cleaved). (D) and (E) 293T cells were transfected with WT or AA reporter constructs of MLL1-p75 or TFIIA in the presence or absence of HA-taspase1. Western blot was performed with anti-Flag antibody for MLL1 or TFIIA, or anti-HA antibody for taspase1. (F) 293T cells were infected with shRNAs against CKIIα or CKIIα′. Western blot was performed with anti-MLL1C antibody for MLL1 full-length protein levels, and CKIIα or CKIIα′ for knockdown efficiency. (G) 293T cells were treated with DMSO or 10 μM CX-4945 for 30 hours. Cells were harvested and lysed for Western blot against MLL1, MLL2 or TFIIA using β-tubulin as the loading control. (H) and (I) 293T taspase1 KO cells were pre-treated with CX-4945 (3 μM) or TTP22 (10 μM) for 30 hours. Whole cell lysates from the two conditions were incubated with increasing concentrations of his-taspase1 and subject to in vitro taspase1 assay.
FIG. 13. CKII inhibitors increase full-length MLL1 protein levels. (A) Prediction of kinases that phosphorylate MLL1 near the taspase1 cleavage site. (B) Structure of the CKII inhibitors CX-4945, TTP22, DMAT and TTB. (C) Comparison of the IC50 and molecular weight of the four CKII inhibitors. […] Quantification of the band intensities was performed by ImageJ software. (E) and (F) in vitro taspase1 cleavage assay. Taspase1 KO cell lysates were incubated with recombinant his-tagged taspase1 (0, 1, 10, 100 or 1000 ng) and subject to in vitro taspase1 cleavage assay. Cleavage efficiency was shown as the blotting for MLL1 and TFIIA using Hsp90 as the loading control.
Cell culture. […]

MLL2, TFIIA = assay: Western blot of MLL2 and TFIIA cleavage in 293T cells treated with CX-4945; details: 10 μM, 30 hours
Experimental: as §1, with “Whole cell lysates from the two conditions were incubated with increasing concentrations of his-taspase1 and subject to in vitro taspase1 assay.” left out

JUP and SLC43A2 mRNA = assay: mRNA levels of JUP and SLC43A2 genes in SEM cells
Experimental: RNA-seq Analysis. Gene count tables were constructed using HTseq (Anders et al. 2015) with Ensembl gene annotations and used as input for edgeR 3.0.8 (Robinson et al. 2010). Genes with Benjamini-Hochburg adjusted p-values less than 0.01 were considered to be differentially expressed. GO enrichment analysis was evaluated by the MetaScape online software suite (Tripathi et al. 2015).

O=C(O)c1ccc2c(c1)nc(Nc1cccc(Cl)c1)c1ccncc12 [CX-4945, 5-(3-chlorophenylamino)benzo[c][2,6]naphthyridine-8-carboxylic acid]
conversion from cleaved MLL1 to full-length MLL1 (MLL1; 293T cells, 10 μM): increased the conversion from cleaved MLL1 to full-length MLL1 | MLL1 full-length protein levels (MLL1; 293T, MCF7 and HCT116 cells, 0-20 μM, Western blot with MLL1C antibody): dose-dependent increase of MLL1 full-length protein levels | cleavage of MLL2 or TFIIA (MLL2, TFIIA): without affecting the cleavage of MLL2 or TFIIA | mRNA levels of JUP and SLC43A2 genes (JUP and SLC43A2 mRNA): decrease of mRNA levels
